Laboratory results taken from the CheMixHub ionic liquid set.

Assay: xn = mol fraction of the nth substance listed
Settings: 101 kPa

CCCC[n+]1ccccc1.[Br-] + CC[n+]1ccccc1.[Br-]
viscosity [mPa·s]
Settings	x2 = 0.085	x2 = 0.197	x2 = 0.269	x2 = 0.352	x2 = 0.52	x2 = 0.621	x2 = 0.689	x2 = 0.811	x2 = 0.903
353.1 K	–	–	–	–	93.7	–	–	–	–
358.1 K	–	–	–	–	77.4	–	–	–	–
363.1 K	–	–	–	86.2	64.2	53.8	–	–	–
368.1 K	–	–	80.4	70.3	53.7	45.6	–	–	–
373.1 K	–	–	65.3	57.8	45.1	38.8	–	–	–
378.1 K	–	–	53.5	47.8	38.1	33.2	30.3	–	–
383.1 K	–	–	44.2	39.9	32.4	28.6	26.3	–	–
388.1 K	45.3	40.8	36.8	33.5	27.7	24.7	22.9	19.85	–
393.1 K	37.4	34.2	30.9	28.3	23.9	21.5	20	17.61	–
398.1 K	31.1	28.9	26.2	24.2	20.7	18.8	17.59	15.64	14.32
403.1 K	26.2	24.7	22.3	20.8	18	16.46	15.52	13.94	12.86
408.1 K	22.2	21.2	19.2	18	15.75	14.52	13.76	12.45	11.57
413.1 K	19.1	18.5	16.65	15.64	13.88	12.86	12.25	11.17	10.44
418.1 K	16.53	16.2	14.56	13.73	12.29	11.46	10.97	10.06	9.44
423.1 K	14.47	14.35	12.83	12.15	10.96	10.26	9.85	9.08	8.56
428.1 K	12.78	12.83	11.41	10.82	9.83	9.23	8.89	8.23	7.77
433.1 K	11.41	–	10.23	9.72	8.87	8.35	8.06	7.49	7.08
438.1 K	10.3	10.55	9.25	8.8	8.05	7.59	7.34	6.83	6.46
443.1 K	9.39	–	8.44	8.03	7.36	6.93	6.71	6.25	5.91
